The test has as its system T cell blast formation in human blood. The experiment in a line: In vitro inhibition of T cell blast formation in human blood (human whole blood blast formation, PHA stimulated, flow cytometry). The test is classed as cell-based. To be noted: 72 hours, mean where multiple measurements. Background: In flow cytometry, cells or beads pass a laser one at a time.
Where [1] appears, read: Test Dose 3 × 10^−7 (unit not given).
The mark [2] stands for this setting: Test Dose 1 × 10^−6 (unit not given).

Consider `CC(C)=NOC(c1ccccc1)c1ccc(NC(=O)[C@@H]2CC(c3cccnc3)=NO2)cc1` (stereo partly drawn) [Compound 504, (5S)-4,5-dihydro-N-[4-[[[(1-methylethylidene)amino]oxo]phenylmethyl]phenyl]-3-(3-pyridinyl)-5-isoxazolecarboxamide], for which the “% Inhibition of T cell blast formation” value under setting [1] is listed as 75%.

`CC(C)OC(=O)OC(c1ccccc1)c1ccc(NC(=O)[C@@H]2CC(c3cccnc3)=NO2)cc1` (stereo partly shown) [Compound 508, [5S(A)]-[4-[[[4,5-dihydro-3-(3-pyridinyl)-5-isoxazolyl]carbonyl]amino]phenyl]phenylmethyl 1-methylethyl carbonic acid (ester)]: the “% Inhibition of T cell blast formation” value under setting [1] was determined as 70%.

In the case of `CC(O)(c1ccccc1)c1ccc(NC(=O)C2CC(c3cccnc3)=NO2)cc1` (stereo not shown) [Compound 510, (B1)-4,5-dihydro-N-[4-(1-hydroxy-1-phenylethyl)phenyl]-3-(3-pyridinyl)-5-isoxazolecarboxamide], the “% Inhibition of T cell blast formation” value under setting [2] was 76%.

`COC(=O)OC(C#N)(c1ccccc1)c1ccc(NC(=O)C2CC(c3cccnc3)=NO2)cc1` (stereo not shown) [Compound 524]: under setting [2], the “% Inhibition of T cell blast formation” value is reported as 81%.

(Values after patent publication US7414048B2, “4,5-dihydro-isoxazole derivatives and their pharmaceutical use” (Janssen Pharmaceutica, N.V., priority 1998, dated 2008).)
